The test system of this experiment is retinal neurocytes. As to the kind of experiment: Cell survival of retinal neurocytes, MTT assay, 72 hours, hypoxic conditions. Format: cell-based, rat. Conditions: for cell survival rate: normal culture = 100%. How it is done: Eyes of a […] rat were removed and retina of the eyes were separated and then put into solution 1. Retinal tissues were treated in trypsin at a temperature of 37° C. for 10 minutes and then centrifuged at 180 g for 5 minutes.
After centrifugation, a supernatant solution was discarded and all collected tissues were put into a stop solution. Aggregated tissues were disentangled by using a pipette and then centrifuged again at 180 g for 5 minutes. Separated cells were mixed with 10% FBS-MEM at a density of 1×10^6 cells/mL. 100 ul of cells were inoculated in each well of a 96-well plate and then cultured for 24 hours.
Thereafter, the culture medium was removed from the well plate for stabilization, a new culture medium and 5 uM Ara-c (cytosine arabinoside, sigma, C1768) were added thereto, cultured for 48 hours, the culture medium was removed again after 48 hours, a new culture medium was added thereto, and then cultured in an incubator having conditions of […], 5% CO2, and a temperature of 37° C. for the next experiment. Thereafter, the culture medium was removed for stabilization after another 48 hours, then a new culture medium was added thereto, and then cultured in an incubator under conditions of […], 5% CO2, and a temperature of 37° C. for the next experiment.
Cells were seeded in a 96-well plate at a density of 2×10^4 cells/well and 200 ul for each well. In this regard, cell confluence was set to be about 70% to about 80%. After 24 hours, when the cells have stabilized, a 26 gauge or 28 gauge needle was used to remove a preexisting medium from the wells. 200 ul of PBS free of serum and nutrients was added to each well, the wells were divided into EPO treatment groups and MKX-2 treatment groups, which were further divided into experimental groups according to concentrations of 0 nM, 0.1 nM, 1 nM, 10 nM, 100 nM, and 1000 nM and then treated with a drug for 72 hours under hypoxic conditions, and surviving […] neurocytes were quantitatively analyzed in an […]. The EPO used was an Eporon injection (Dong-A Pharmaceuticals, Korea). All experimental groups for each concentration included 7 wells. After a certain treatment time, 3-[4,5-dimethylthiazol-2-yl]-2,5-diphenyl tetrazolium bromide (MTT, Sigma, M2128) that was dissolved in a phosphate buffered saline (PBS) and then sterilization filtered by using a membrane filter having a thickness of 0.22 um was added to each well in an amount of 100 ul at a concentration of 1 mg/ml. In this regard, an MIT reagent was used after wrapping the MTT reagent with a foil sheet to block it from light. […]
Thereafter, an ELISA reader was used to measure an O.D. value at 570 nm for quantitatively analysis. […]
Background: Tetrazolium assays rely on reduction of a dye to a coloured formazan, in cell work by metabolically active cells.

Turning to “EPO: erythropoietin; the EPO used was an Eporon injection (Dong-A Pharmaceuticals, Korea)”, under “0.1 nM and 1 nM”, the “increase of cell survival rate compared to 0 nM” value is listed as “without any statistical significance”. Further, the cell survival rate runs as follows: (10 nM) 128.03%; (100 nM) 127.6%; (1000 nM) 124.77%.

For the origin of these results see patent publication US20140378378A1, “ERYTHROPOIETIN-DERIVED PEPTIDE AND USE THEREFOR” (priority 2011, published 2014).
